T1: syntrophin PDZ domain (Mus musculus, UniProt Q61234)
T1 construct: syn PDZ1; made in house; host or cells: E. coli BL-21 Rosetta (DE3)pLysS, pMAL-c5X vector
T1 sequence (Q61234 77-171): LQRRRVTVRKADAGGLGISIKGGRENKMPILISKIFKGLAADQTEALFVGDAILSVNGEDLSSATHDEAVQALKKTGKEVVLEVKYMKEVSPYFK

B1: clamp: SEQ ID NO: 144, 2-unit clamp of α-syntrophin PDZ domains with 3x FLAG tag and NLS (protein)
chain: MDYKDHDGDYKDHDIDYKDDDDKMAPKKKRKVVELQRRRVTVRKADAGGLGISIKGGRENKMPILISKIFKGLAADQTEALFVGDAILSVNGEDLSSATHDEAVQALKKTGKEVVLEVKYMKEVSPYFKGSGGSSGSGPGSSGGSGPGSGSSGGSGSGPGSGGSSGPGSETELVELQRRRVTVRKADAGGLGISIKGGRENKMPILISKIFKGLAADQTEALFVGDAILSVNGEDLSSATHDEAVQALKKTGKEVVLEVKYMKEVSPYFKG
B2: synTF: MBP-ZF43-8 fusion harboring a VKESLV-type syntrophin PDZ ligand, titrated against DBM oligo probe (protein)
chain: GEAPFQCRICMANFSRQDRLDRHTRTHTGEKPFQCRICMANFSQKEHLAGHLRTHTGEKPFQCRICMANFSRRDNLNRHLKTHLRGSGSGVKESLV
modifications: left off: large carriers
notes: MBP-ZF43-8 fusion harboring a VKESLV-type syntrophin PDZ ligand, titrated against DBM oligo probe

Key:
syntrophin PDZ domain = target: T1, syntrophin PDZ domain; test: Fluorescence anisotropy PDZ-ligand binding, syntrophin, direct and competition; parameters: key to Syn Kd (μM), PDZ affinity (Kp): nb indicates no binding; details: for Kd: read-out: Syn Kd (μM), PDZ affinity (Kp)
Procedure: (§1) Probes were generated by annealing an unlabeled top oligo to a labeled bottom oligo in a 2:1 ratio, while binding competitor oligos were generated using unlabeled top and bottom oligos mixed at equimolar ratios. For PDZ binding experiments, fluorescein-labeled peptide probe (ordered from Selleckhem) used for PDZ binding measurements contained the sequence VKESLV* (SEQ ID NO: 6), where the N-terminus was labeled with a FITC conjugate. Probe concentration was assessed by measuring Abs490. Competitor peptides were purified as MBP-ZF43-8 fusions (see e.g., FIG. 5A-FIG. 5B, FIG. 7A-FIG. 7B).
(§2) All assays were conducted in 20 mM Tris, pH 7.5, 100 mM […], 50 μM ZnCl2 buffer at 25° C. Proteins, probes, and competitor oligos were added to a final volume of 300 μL. Probes were used at 10 nM in all experiments. For complex assembly experiments (FIG. 1C), indicated concentrations of MBP-ZF43-8 harboring a VSKESLV* ligand (SEQ ID NO: 120) (see e.g., FIG. 5A-FIG. 5B, FIG. 7A-FIG. 7B) were titrated against 5 μM concentrations of clamp. Mixtures were allowed to equilibrate at 25° C. for 10 min in Costar black 96-well plates prior to reading. Fluorescence anisotropy (FA) measurements were made at 494 nm using a SpectraMax M5 (Molecular Devices) fluorescence plate reader. For all measurements, anisotropy (r) was calculated using the following equation, wherein I∥ and I⊥ are parallel and perpendicular fluorescence, respectively:
(§3) Fraction of bound probe was calculated using the following equation, wherein rbound and rfree are the anisotropy values for fully bound and fully unbound probe, respectively:
(§4) Each of these values was measured independently of binding curves with either a 100× excess or absence of ZF (in the case of ZF-oligo binding) or PDZ (in the case of PDZ-ligand binding). Q is the ratio of total fluorescence (measured at 454 nm) under rbound and rfree conditions. To obtain binding constants for ZF-probe and PDZ-probe interactions, binding data were fit to the following quadratic equation, wherein [P] is the total concentration of either ZF or PDZ, [probe] is the total concentration of the oligo or peptide probe, and Kd is the dissociation constant of the interaction:
(§5) Competition binding curves were calculated by fitting competition binding curves to the following cubic equation, wherein fb is fraction probe bound, [L*T] is the total probe concentration, [RT] and [R] are total and free concentrations of the ZF, respectively, while [LT] and [L] are total and free concentrations of competitor. Kd1 is the affinity for TF and probe, while Kd2 is the affinity between TF and competitor:
(§6) As a first step toward construction of a molecular assembly scheme amenable to modeling, a set of part variants was identified comprising a range of Kt and Kp values, and then in vitro binding experiments were conducted to directly measure their binding affinities (see e.g., FIG. 6, FIG. 7A, FIG. 7B). […] For each ZF, previously described R-to-A ZF backbone mutations were used as affinity variants (see e.g., Khalil et al., Cell. 150, 647-658 2012). DBM affinity series (DBM1, DBM2, etc.) for both ZFs by were also generated by systematically mutating nucleotides both in the core and directly flanking the core 9-bp recognition sequence (ZF 1: a[…]c (SEQ ID NO: 99); ZF2: a[…]c (SEQ ID NO: 102)). Similarly, PDZ-ligand affinities were measured for two domains (syntrophin ‘syn’ and erbin ‘erb’) and their respective partner ligands. For each pair, ligands of various affinities were obtained from published reports (S1, S2, . . .; E1, E2, . . . )12, 13 (see e.g., FIG. 7A, FIG. 7B). Altogether, this yielded a set of component interactions consisting of 15 ZF-DNA and 13 PDZ-ligand pairs with in vitro-measured values ranging from mid μM to low nM, permitting broad, tunable control of Kt and Kp.
(§7) PDZ-ligand binding constants were measured in vitro by fluorescence anisotropy. Recombinant proteins were purified as described herein. […]

erbin PDZ domain = target: T2, erbin PDZ domain (Homo sapiens, UniProt Q96RT1, V1340R); test: Fluorescence anisotropy PDZ-ligand competition binding, erbin; parameters: key to Erb Kd (μM), PDZ affinity (Kp): nb indicates no binding; details: for Kd: read-out: Erb Kd (μM), PDZ affinity (Kp)
T2 construct: made in house; host or cells: E. coli BL-21 Rosetta (DE3)pLysS, pMAL-c5X vector
T2 sequence (Q96RT1 with tags, fused parts or gaps V1340R): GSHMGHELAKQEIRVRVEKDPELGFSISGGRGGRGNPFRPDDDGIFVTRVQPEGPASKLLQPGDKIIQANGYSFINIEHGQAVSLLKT
Procedure: as §1, §2, §3, §4, §5, §6, §7

[1] = test system: HEK293FT reporter cell line; test: Clamp assembly-mediated transcriptional activation, mCherry reporter by flow cytometry; type: cell-based; details: transfected into HEK293FT reporter line, 4 tandem DBMs, pMinCMV
From the text: In the work in yeast, clamp-dependent assembly was initially based on the ability of a zinc finger-based synthetic transcription factor (synTF) and clamp to induce higher reporter activation when co-expressed. To test the possibility that assembly-mediated gene expression also works in mammalian cells, a similar approach was taken. Expression plasmids were generated for synTF (sequence descriptions in Example 7) and a 2-unit (nc=2) clamp (sequence description in Example 7), both driven by a strong UBC promoter (pUBC, Ubiquitin C promoter). A corresponding HEK293FT reporter cell line was generated by lentiviral transduction of a synTF-responsive reporter construct, composed of 4 tandem 20-bp DNA-binding motifs (DBMs) upstream of a minimal CMV promoter (pMinCMV) driving expression of an mCherry fluorescent protein.
Different combinations of the synTF and clamp expression plasmids were transfected into the HEK293FT reporter line, and mCherry reporter expression was assayed using flow cytometry (see e.g., FIG. 19).

[2] = test system: DBM oligo probe (FITC labeled); test: In vitro complex assembly: synTF titration of DBM oligo probe with or without clamp (fluorescence anisotropy); type: binding
From the text: FIG. 1A-FIG. 1E is a series of graphs and schematics showing the design scheme for assembly-mediated regulatory control of synthetic gene circuits. (FIG. 1A) Nodes in cellular networks use one-to-one regulatory interactions to execute simple computation-al tasks (top); cooperative interactions within multivalent assemblies enable complex, non-linear signal processing (bottom). (FIG. 1B) Design of synthetic TF regulatory assemblies. Complexes are built from interaction domains (ZF and PDZ) and their respective binding partners (DBM and PDZ ligand). Clamp-mediated synTF complex-formation (TA, transcriptional activator domain drives coding sequence transcription). Interaction affinities (Kt and Kp) and the number of repeated complex units (nc) determine thermodynamics of assembly. (FIG. 1C) In vitro assembly of purified cooperative complex components. Fluorescence anisotropy for synTF titration of DBM oligo probe ([…]) and converted to fraction probe bound (Nb, synTFs with binding-deficient PDZ ligand mutants; nc, number of PDZ domains per clamp and DBMs probe). Points represent mean values for three measurements±SE. (FIG. 1D) Testing in vivo complex assembly in yeast using a synthetic gene circuit (GFP output). All genes are chromosomally-integrated (left; see e.g., Table 4). Small molecule-inducible expression systems (ncTET and ncZEV) control intracellular expression levels (see e.g., FIG. 8A, FIG. 8B) of synTF (induced by ATc, 2-500 ng/mL) and clamp (EST, 0.05-12.5 nM), respectively. Adjusting molecular features of assembly (Kt, Kp, nc) tunes overall circuit transfer function (right). (FIG. 1E) Parameterization of thermodynamic complex assembly model. Dose response data for circuit configurations with various Kt, Kp, nc values were fit to a thermodynamic model (see e.g., FIG. 10, FIG. 11); regression plot showing residual from fit are shown at the right. MAE, mean absolute error.
Thus, synTF binding cooperativity is enhanced by the clamp and scales in magnitude with complex size.
as §2, with “For complex assembly experiments (FIG. 1C), indicated concentrations of MBP-ZF43-8 harboring a VSKESLV* ligand (SEQ ID NO: 120) (see e.g., FIG. 5A-FIG. 5B, FIG. 7A-FIG. 7B) were titrated against 5 μM concentrations of clamp.” left out
Species used in the binding assay are described in FIG. 5A and FIG. 5B, and descriptions for protein purification and the binding assay are described elsewhere herein. […]

| Molecule | Kd (syntrophin PDZ domain) [µM] | Erb Kd (μM), PDZ affinity (Kp) (erbin PDZ domain) | Kd (erbin PDZ domain) [µM] | other results |
| --- | --- | --- | --- | --- |
| VKEALV | 27.3 | nb | – | – |
| VKESLV | 1.97 | – | 5.71 | – |
| PVDSWV | 1.57 | – | 0.42 | – |
| WLVTWV | – | – | 0.1 | Syn Kd (μM), PDZ affinity (Kp) (syntrophin PDZ domain): nb |
| IRWTIV | 0.49 | – | 1.73 | – |
| IRETIL | 0.18 | nb | – | – |
| IRETII | 0.062 | nb | – | – |
| IRETIV | 0.88 | – | 3.46 | – |
| VKEAAA | – | nb | – | Syn Kd (μM), PDZ affinity (Kp) (syntrophin PDZ domain): nb |
| WLKTWV | – | – | 0.33 | Syn Kd (μM), PDZ affinity (Kp) (syntrophin PDZ domain): nb |
| HLETFF | 43.2 | nb | – | – |
| B1 | – | – | – | mCherry reporter expression [1]: enhancement of reporter activation |
| B2 | – | – | – | cooperativity (nH) ([2]; nc=2 probe, two-PDZ clamp added (2 μM)): 1.81; cooperativity (nH) ([2]; nc=2 probe, without clamp): 1.07; EC50 ([2]; nc=2 probe, without clamp, read-out: affinity of synTFs for the probe (EC50)): 210 nM; cooperativity (nH) ([2]; nc=3 probe and three-repeat clamp): 2.55 |

Source: patent US11781149B2, “Systems and methods for control of gene expression” (TRUSTEES OF BOSTON UNIVERSITY, priority 2018, dated 2023)
